Values of other authors in US8691302B2, “Peptide-containing seasoning” (Kikkoman Corporation, priority 2008, dated 2014).

Key:
[1] = molecular target: angiotensin converting enzyme (Homo sapiens, UniProt P12821); conditions: reported in Non-patent Reference 1
[2] = reported in Non-patent Reference 1

angiotensin converting enzyme, sequence (P12821 30-1306, species assumed): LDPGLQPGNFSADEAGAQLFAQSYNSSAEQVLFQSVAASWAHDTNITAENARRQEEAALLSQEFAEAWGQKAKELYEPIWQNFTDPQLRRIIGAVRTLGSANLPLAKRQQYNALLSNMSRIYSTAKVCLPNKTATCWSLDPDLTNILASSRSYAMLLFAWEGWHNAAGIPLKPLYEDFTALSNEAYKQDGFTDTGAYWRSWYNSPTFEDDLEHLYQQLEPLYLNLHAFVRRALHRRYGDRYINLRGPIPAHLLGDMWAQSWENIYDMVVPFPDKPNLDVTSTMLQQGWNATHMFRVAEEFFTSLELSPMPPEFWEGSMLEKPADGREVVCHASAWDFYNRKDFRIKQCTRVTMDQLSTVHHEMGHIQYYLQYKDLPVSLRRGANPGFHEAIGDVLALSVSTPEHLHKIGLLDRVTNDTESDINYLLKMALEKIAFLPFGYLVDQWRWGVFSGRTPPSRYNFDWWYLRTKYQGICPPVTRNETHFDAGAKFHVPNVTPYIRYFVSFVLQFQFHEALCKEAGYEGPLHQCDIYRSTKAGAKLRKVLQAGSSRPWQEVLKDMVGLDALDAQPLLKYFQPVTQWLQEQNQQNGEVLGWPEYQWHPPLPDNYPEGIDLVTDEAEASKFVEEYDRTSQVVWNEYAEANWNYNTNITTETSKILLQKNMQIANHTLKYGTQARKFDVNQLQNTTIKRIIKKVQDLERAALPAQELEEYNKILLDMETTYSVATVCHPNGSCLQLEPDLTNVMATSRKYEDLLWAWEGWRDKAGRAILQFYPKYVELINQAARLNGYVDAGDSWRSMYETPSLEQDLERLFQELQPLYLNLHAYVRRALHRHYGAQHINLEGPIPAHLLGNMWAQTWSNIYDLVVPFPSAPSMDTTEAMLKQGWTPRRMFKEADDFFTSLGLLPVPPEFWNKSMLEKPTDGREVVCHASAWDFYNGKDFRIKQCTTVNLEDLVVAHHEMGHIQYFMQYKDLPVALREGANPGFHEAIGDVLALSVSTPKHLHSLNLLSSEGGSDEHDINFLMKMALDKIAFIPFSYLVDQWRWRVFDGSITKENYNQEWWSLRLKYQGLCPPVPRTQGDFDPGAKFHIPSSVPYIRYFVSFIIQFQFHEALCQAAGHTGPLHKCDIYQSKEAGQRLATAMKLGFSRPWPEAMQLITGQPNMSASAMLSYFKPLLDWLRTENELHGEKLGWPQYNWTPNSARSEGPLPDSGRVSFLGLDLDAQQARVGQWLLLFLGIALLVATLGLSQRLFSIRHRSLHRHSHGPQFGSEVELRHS

Substance: Gly-Tyr
- angiotensin converting enzyme inhibitory activity [1]: have an angiotensin converting enzyme inhibitory activity
- hypotensive activity [2]: a hypotensive activity

Substance: Ser-Tyr
- angiotensin converting enzyme inhibitory activity [1]: have an angiotensin converting enzyme inhibitory activity
- hypotensive activity [2]: a hypotensive activity
